Measured values as given in publication PMC6206206, “Behavioral and Pharmacokinetic Profile of Indole-Derived Synthetic Cannabinoids JWH-073 and JWH-210 as Compared to the Phytocannabinoid Δ^9-THC in Rats” (Frontiers in Neuroscience, 2018).

Assays:
[1] = system: Wistar rats; experiment: Prepulse inhibition (PPI) of acoustic startle response (ASR); format: in vivo; details: for alteration of ASR or PPI by acute treatment: all doses tested, sc., 1 h after administration
Experimental: (§1) All behavioral experiments were performed 1 h after sc. drugs administration.
The PPI of ASR took place in two ventilated startle chambers (SR-LAB, San Diego Instruments, California, USA) which were calibrated to ensure equivalent stabilimeter sensitivity between the chambers. The test consists of acclimatization and two sessions, as previuosly described (Direnberger et al., [2012]; Palenicek et al., [2016]; Tyls et al., [2016]; Hlozek et al., [2017]; Sichova et al., [2017]; Stefkova et al., [2017]). Briefly, acclimatization was performed 2 days before the test, when drug-free rats were habituated in 5 min session with five presentations of pulse alone stimuli (115 dB/20 ms) over background white noise (75 dB). On the day of test, the compounds or vehicle were administered sc. 1 h prior to PPI/ASR testing. After acclimatization (5 min with 75 dB background noise), the test started with a short session of six 40 ms 125 dB pulse trials to establish baseline ASR. It was followed by the second session consisting of trials presented in a pseudorandom order: (1) single pulse alone: 40 ms 125 dB; (2) trial of prepulse-pulse: 20 ms prepulse of 83 dB presented 30, 60, and 120 ms (average 70 ms) before 40 ms 125 dB pulse; (C) 60 ms no stimulus. Finally, six […] 125 dB pulse trials were delivered. Habituation was calculated by the percentage reduction in ASR from the initial six, to the final six pulse trials. PPI was calculated as: [100–(mean prepulse–pulse trials/mean pulse alone trials)^*100]. ASR was derived from mean pulse alone trials. Animals with an AVG response lower than 10 were excluded from further analysis as non-responders.
To evaluate the effect on the locomotion measured in 5 min intervals, two-way repeated measures ANOVA analysis (factor 1: drug; factor 2: time intervals) was used in software system IBM SPSS version 22. […] The total length of the trajectory over 30-min, thigmotaxis and time in the center, ASR, habituation and PPI were analyzed by one-way ANOVA analysis by using software STATISTICA version 9.0. […]

[2] = system: cannabinoid CB1 receptors; details: cited from earlier work
[3] = system: mice; details: 3–30 mg/kg; ref Marshell et al., 2014; cited from earlier work
[4] = system: Wistar rats; experiment: Open field test (locomotor activity, thigmotaxis, time in center); format: in vivo; details: for locomotion in 5 min time intervals (open field): 1 h after administration, vs vehicle
Experimental: as §1
A square black plastic open field arena (68 × 68 × 30 cm) was placed in a soundproof and diffusely lit room. Each of animals was placed into the center of the arena, in a novel unfamiliar environment, and 1 h after drug administration the behavior was video-recorded for 30 min using the system EthoVision Color pro v. 3.0 (Noldus, NL). Locomotor activity was subsequently analyzed within 5 min blocks/time intervals (1–6). The calculation of the data was performed in the EthoVision software and corrected (smoothed) for movement deviations of < 3 cm. Initially total distance traveled per time block was calculated and data were plotted in the graphs. To evaluate the spatial characteristics of the locomotor activity such as thigmotaxis and time spent in the center of arena, the arena was virtually divided into 5 × 5 identical square zones with 16 located peripherally and nine centrally. Frequency (f) of appearances of the animal in different zones of the arena was used to calculate thigmotaxis (i) (i = ∑fperipheralzones / ∑fallzones) which is a number (value varying from 0 to 1) indicating the probability of appearance in peripheral zones. Time spent in the center of the arena (Tcenter) was calculated Tcenter = ∑timecentralzones (Balikova et al., [2014]; Horsley et al., [2016]; Palenicek et al., [2016]; Tyls et al., [2016]; Hlozek et al., [2017]; Sichova et al., [2017]; Stefkova et al., [2017]).
To evaluate the effect on the locomotion measured in 5 min intervals, two-way repeated measures ANOVA analysis (factor 1: drug; factor 2: time intervals) was used in software system IBM SPSS version 22. Significant main effects and interaction two-way repeated measures ANOVAs were followed with pairwise comparisons using independent t-test. For repeated measures ANOVAs, where Mauchly's test of sphericity was significant, Greenhouse-Geisser [Greenhouse-Geisser estimate of sphericity (ε) < 0.75 or Huynh-Feldt (ε) >0.75] correction are reported. Degrees of freedom were rounded to whole number for presentational purposes. For independent t-test, where Levene's test for equality of variances was significant, statistics corrected for unequal variances are given p < 0.05 (two tailed) was considered the minimal criterion for statistical significance. For multiple comparisons, t-test was used with Bonferroni correction. The total length of the trajectory over 30-min, thigmotaxis and time in the center, ASR, habituation and PPI were analyzed by one-way ANOVA analysis by using software STATISTICA version 9.0. Where appropriate, ANOVA analyses were followed by the Tukey post-hoc test. Statistical significance was set at p < 0.05 for all analyses.

[5] = Serum levels of JWH-073 and JWH-210 after sc. administration (LC-MS)
[6] = Serum levels of Δ^9-THC and its metabolites after sc. administration (GC-MS); details: after Δ^9-THC 3 mg/kg sc.; for detectability in serum over the measurement intervals: 30 min, 1, 2, 4, 8, 24 h; for maximum serum concentration (Mean ± SEM): n = 6
[7] = 3 mg/kg sc., vs control, p < 0.01

## CCCCn1cc(C(=O)c2cccc3ccccc23)c2ccccc21 [JWH-073, (1-butylindol-3-yl)-naphthalen-1-ylmethanone]
[1]
  alteration of ASR or PPI by acute treatment: did not find significant alteration
[2]; vs Δ^9-THC, ref Wiley et al., 1998, Aung et al., 2000, Brents et al., 2012
  CB1 binding affinity relative to Δ^9-THC (fold higher): four-fold higher
[3]
  locomotor activity: dose-dependent reduced locomotor activity
[4]; 0.1 mg/kg sc.
  locomotion in 5 min time intervals (open field): significantly increased locomotor activity at the 5-10 and 10-15 min time blocks
[4]; 0.5 mg/kg sc.
  locomotion in 5 min time intervals (open field): increased locomotion at 0–5, 5–10, 10–15, and 20–25 min onset
[4]; 0.5 mg/kg sc., vs control group, p < 0.05
  total length of the trajectory over 30-min (total locomotor activity): significantly increased locomotor activity
[4]; 5 mg/kg sc.
  locomotion in 5 min time intervals (open field): reduced the locomotor activity at 15–20 min time block
[4]; 0.1, 0.5 and 5 mg/kg sc.
  thigmotaxis (probability of appearance in peripheral zones): neither JWH-073 nor JWH-210 modified the thigmotaxis
  time spent in the central zones of the open field: neither JWH-073 nor JWH-210 modified
[5]; 0.5 mg/kg sc., 30 min, 1, 2, 4, 8, 24 h
  detectability in serum over the measurement intervals: detectable at all measurement intervals
[5]; 0.5 mg/kg sc., rat serum, n = 8
  maximum serum concentration (Mean ± SEM): 1.84 ± 0.06 ng/mL
[5]; male, Wistar, rat, serum, sc, 0.5 mg/kg
  Tmax: 4 h
[5]; male, Wistar, rat, serum, subcutaneous, 0.5 mg/kg
  concentration at 24 h: 0.41 ± 0.19 ng/mL

## CCCCCc1cc(O)c2c(c1)OC(C)(C)[C@@H]1CCC(C(=O)O)=C[C@@H]21 [THC-COOH]
[6]
  detectability in serum over the measurement intervals: detectable as Δ^9-THC at all intervals
[6]; rat serum
  time of maximum serum concentration: 1 h
  maximum serum concentration (Mean ± SEM): 10.5 ± 7.27 ng/mL

## CCCCCc1cc(O)c2c(c1)OC(C)(C)[C@@H]1CCC(C)=C[C@@H]21 [Δ^9-THC, Δ9-tetrahydrocannabinol]
[1]; 1 mg/kg sc., p = 0.06
  prepulse inhibition (PPI), post-hoc: slight not significant decrease of PPI
[1]
  alteration of ASR or PPI by acute treatment: did not find significant alteration
[2]; ref Huffman et al., 2005, read-out: Ki, affinity for central and peripheral cannabinoid CB1 receptors
  Ki: 41 ± 2 nM
[4]; [7]
  thigmotaxis (probability of appearance in peripheral zones): decreased thigmotaxis
  time spent in the center of the open field arena: increased time spent in central zone
[4]; 1 or 3 mg/kg sc.
  total trajectory in the open field test: did not affect the total trajectory
  locomotion in 5 min time intervals (open field): neither a main effect of drug nor drug × time interval interaction were found
[6]
  detectability in serum over the measurement intervals: detectable as Δ^9-THC at all intervals
[6]; rat serum
  time of maximum serum concentration: 1 h
  time of second serum peak: 8 h
  maximum serum concentration (Mean ± SEM): 12.1 ± 3.06 ng/mL
